Laboratory results from article PMC10895678 (Journal of Medicinal Chemistry, 2024).
Values after ≈ are worked out from the molar mass of the structure shown. Read-outs that look alike come from different tables or passages of the source.

Columns and labels:
[1] = Caco-2 permeability and efflux; type: in vitro ADME; settings: human, pH 7.4, 2 h; for efflux ratio at 2 h, 10 μM: Caco-2, pH 7.4, 10 μM; for Papp B→A at 2 h, 10 μM: Caco-2, read-out: Caco-2 B-A Paap
Method: Compounds were solubilized (10 mM in DMSO), and the CacoReady Kit from ReadyCell S.L. (Barcelona, Spain) was used to determine compound permeability. Differentiated and polarized Caco-2 cells (21-day system) were plated on a 96-transwell permeable system as a single monolayer to allow for automated high throughput screening of compounds, and 10 μM BGAz compound was added to the system in HBSS buffer (pH 7.4) and incubated for 2 h at 37 °C in a CO2 incubator. Lucifer yellow was used as a cell monolayer integrity marker. Drug transport was assessed in both directions [apical to basolateral (A-B) and basolateral to apical (B-A)] across the cell monolayer. […] The BGAz compound concentrations were quantified using a calibration curve following analysis by LC-MS/MS, and the apparent permeability coefficient (Papp) and efflux ratio of the compound across the monolayer were calculated. The efflux ratio is used as an indicator of active efflux. The permeability coefficient (Papp) was calculated from the following equation: [drawing 2] 2 where dQ/dt is the amount of compound in the basal (A-B) or apical (B-A) compartment as a function of time (nmol/s). C0 is the initial concentration in the donor (apical or basal) compartment (Mean of T = 0) (nmol/mL) and A is the area of the transwell (cm^2).
The efflux ratio was then calculated as [drawing 3] 3
All experiments were performed in triplicate, and the MDR1 efflux markers Digoxin, quinidine, and […] were used as positive controls.

M. tuberculosis 1192/015 = experiment: microbe, parasite or virus in culture; type: cell-based; settings: Mycobacterium tuberculosis, 1192/015, read-out: M. tb 1192/015 MIC99
hERG = hERG (Homo sapiens, UniProt Q12809); experiment: cell-based; type: cell-based; settings: for IC50: CHO cells expressing hERG, eight-point curve
hERG, sequence (Q12809 whole entry): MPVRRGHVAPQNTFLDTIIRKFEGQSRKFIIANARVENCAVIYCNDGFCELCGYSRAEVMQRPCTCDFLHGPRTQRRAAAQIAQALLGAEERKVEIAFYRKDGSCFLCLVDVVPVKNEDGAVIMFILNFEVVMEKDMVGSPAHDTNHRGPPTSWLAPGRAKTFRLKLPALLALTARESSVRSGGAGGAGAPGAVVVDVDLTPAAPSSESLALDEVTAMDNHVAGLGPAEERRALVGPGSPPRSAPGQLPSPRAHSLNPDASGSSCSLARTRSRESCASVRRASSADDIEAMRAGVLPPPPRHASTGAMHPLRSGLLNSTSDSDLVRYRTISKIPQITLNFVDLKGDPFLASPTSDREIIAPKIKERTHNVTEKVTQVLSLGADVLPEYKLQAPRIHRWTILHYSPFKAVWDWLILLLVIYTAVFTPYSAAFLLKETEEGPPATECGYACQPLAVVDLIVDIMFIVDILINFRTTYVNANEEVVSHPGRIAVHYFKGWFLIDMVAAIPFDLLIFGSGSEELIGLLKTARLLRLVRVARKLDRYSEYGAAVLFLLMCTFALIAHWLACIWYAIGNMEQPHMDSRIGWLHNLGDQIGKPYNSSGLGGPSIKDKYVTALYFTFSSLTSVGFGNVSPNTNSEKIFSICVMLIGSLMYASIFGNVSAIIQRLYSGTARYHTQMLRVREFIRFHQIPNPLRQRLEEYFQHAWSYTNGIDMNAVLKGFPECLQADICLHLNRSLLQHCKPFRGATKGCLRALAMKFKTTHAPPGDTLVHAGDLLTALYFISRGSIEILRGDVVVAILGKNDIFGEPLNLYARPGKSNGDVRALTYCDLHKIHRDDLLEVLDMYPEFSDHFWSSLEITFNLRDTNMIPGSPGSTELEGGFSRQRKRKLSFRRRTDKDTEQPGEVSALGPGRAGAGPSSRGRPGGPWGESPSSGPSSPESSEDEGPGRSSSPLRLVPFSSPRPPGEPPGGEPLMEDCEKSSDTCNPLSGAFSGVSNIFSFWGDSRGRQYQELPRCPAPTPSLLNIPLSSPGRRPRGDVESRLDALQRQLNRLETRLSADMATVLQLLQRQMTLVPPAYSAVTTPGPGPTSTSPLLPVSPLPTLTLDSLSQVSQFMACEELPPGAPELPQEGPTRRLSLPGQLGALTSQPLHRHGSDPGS
Method: Compounds were solubilized to 30 mM in DMSO before dilution in PBS to […]. […] Eight-point concentration–response curves were generated using 3.16-fold serial dilutions from the top test concentration. Electrophysiological recordings were made from a Chinese Hamster Ovary cell line stably expressing the full length hERG channel. Single cell ionic currents were measured in the perforated patch clamp configuration (100 μg mL^–1 amphotericin) at room temperature (21–23 °C) using an IonWorks Quattro instrument (Molecular Devices). The internal solution contained (mM) 140 KCl, 1 MgCl2, 1 EGTA, and 20 HEPES and was buffered to pH 7.3. The external solution [PBS contained (mM): 138 NaCl, 2.7 KCl, 0.9 CaCl2, 0.5 MgCl2, 8 Na2HPO4, and 1.5 KH2PO4 buffered to pH 7.4]. Cells were clamped at a holding potential of −70 mV for 30 s and then stepped to +40 mV for one second. This was followed by a hyperpolarising step of 1 s to −30 mV to evoke the hERG tail current. Currents were measured from the tail step and referenced to the holding current. Compounds were then incubated for 3–4 min prior to a second measurement of the hERG signal using an identical pulsetrain.

[2] = HepG2 mitochondrial dysfunction (Glu/Gal cytotoxicity, MTT); type: cell-based; settings: human, HepG2 cells, 24 h, MTT
Method: Compounds were solubilized to 30 mM in DMSO. The BGAz compounds were added to the HepG2 cell model in a 96-well microplate in half log dilutions from 100–0.0003 μM (final DMSO concentration 0.3%) using both glucose (DMEM consisting of 25 mM glucose) and galactose (DMEM consisting of 10 mM galactose) media. The compounds were incubated with the cell line for 24 h at 37 °C in a humidified CO2 tissue culture incubator, followed by cell viability staining with MTT (3-(4,5-dimethylthiazol-2-yl)-2.5-diphenyltetrazolium bromide) conversion to the Formazan product, determined by absorbance measurement. The cell viability IC50 was determined in HepG2 glucose and metabolism-modified HepG2 galactose, and the fold change difference between the Glu/Gal IC50 was determined. All experiments were performed in duplicate with the mitochondrial toxicity controls rotenone and Antimycin A and the cytotoxin control tamoxifen.

[3] = Mouse microsomal clearance; type: in vitro ADME; settings: 0.5 mg/mL mouse microsomes
Method: Compounds were solubilized (10 mM in DMSO). 1 μM of BGAz compound was incubated with 0.5 mg/mL mouse microsomes in the presence or absence of the Phase 1 cofactor NADPH (1 mM) at 37 °C for 0, 5, 10, 15, and 30 min. The disappearance of the BGAz compound was assessed by LC-MS/MS. All experiments were performed with two replicates per compound and were validated by the inclusion of up to three species-specific control compounds. Data output consists of mean intrinsic clearance (CLint) and half-life (t1/2) measurements.

CYP2C19 = CYP2C19 (Homo sapiens, UniProt P33261); experiment: biochemical; type: in vitro ADME; settings: for CYP2C19 inhibition (in words) / IC50: human liver microsomes
CYP2C19, sequence (P33261 whole entry): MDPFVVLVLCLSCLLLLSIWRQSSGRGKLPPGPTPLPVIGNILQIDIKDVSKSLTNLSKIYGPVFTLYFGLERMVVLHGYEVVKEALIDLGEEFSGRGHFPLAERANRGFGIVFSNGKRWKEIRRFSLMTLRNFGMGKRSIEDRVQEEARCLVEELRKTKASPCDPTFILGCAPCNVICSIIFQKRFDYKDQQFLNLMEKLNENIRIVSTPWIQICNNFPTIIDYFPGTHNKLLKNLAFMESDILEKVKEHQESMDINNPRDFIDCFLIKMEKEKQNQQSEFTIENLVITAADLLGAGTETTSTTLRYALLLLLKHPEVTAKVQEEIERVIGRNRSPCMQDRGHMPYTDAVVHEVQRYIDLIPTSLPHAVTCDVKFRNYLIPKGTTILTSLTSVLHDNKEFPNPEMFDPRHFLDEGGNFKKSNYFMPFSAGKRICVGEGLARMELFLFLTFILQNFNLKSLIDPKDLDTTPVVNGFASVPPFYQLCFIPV
Method: (§1) Compounds were solubilized to 10 mM in DMSO. The BGAz compounds were incubated at concentrations of 0.003, 0.009, 0.03, 0.08, 0.25, 0.74, 2.2, 6.7, and 20 μM with CYP1A2, CYP2C9, CYP2C19, and CYP2D6 at 37 °C in the presence of the drug-like probe substrate […] the Phase 1 cofactor NADPH (1 mM). The formation of metabolites of the drug-like probe substrates in the absence and presence of the BGAz compound was monitored by LC-MS/MS, and the IC50 value was determined. All assays had two replicates per compound and included a positive control inhibitor.

CYP2C9 = CYP2C9 (Homo sapiens, UniProt P11712); experiment: biochemical; type: in vitro ADME; settings: for IC50: human liver microsomes
CYP2C9, sequence (P11712 whole entry): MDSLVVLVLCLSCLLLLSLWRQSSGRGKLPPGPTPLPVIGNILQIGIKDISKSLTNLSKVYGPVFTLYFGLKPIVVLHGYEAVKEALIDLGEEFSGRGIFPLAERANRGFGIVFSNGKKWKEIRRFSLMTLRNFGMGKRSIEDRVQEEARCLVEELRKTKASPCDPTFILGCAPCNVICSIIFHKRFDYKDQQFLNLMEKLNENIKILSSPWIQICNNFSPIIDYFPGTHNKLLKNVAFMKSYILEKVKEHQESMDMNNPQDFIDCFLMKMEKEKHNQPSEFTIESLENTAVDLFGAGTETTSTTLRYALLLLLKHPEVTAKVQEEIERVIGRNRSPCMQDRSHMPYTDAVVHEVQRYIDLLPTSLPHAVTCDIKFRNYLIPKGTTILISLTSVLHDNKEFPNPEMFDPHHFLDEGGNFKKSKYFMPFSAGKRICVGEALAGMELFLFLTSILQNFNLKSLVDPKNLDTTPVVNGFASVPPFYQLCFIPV
Method: as §1

CYP2D6 = CYP2D6 (Homo sapiens, UniProt P10635); experiment: biochemical; type: in vitro ADME; settings: human liver microsomes
CYP2D6, sequence (P10635 whole entry): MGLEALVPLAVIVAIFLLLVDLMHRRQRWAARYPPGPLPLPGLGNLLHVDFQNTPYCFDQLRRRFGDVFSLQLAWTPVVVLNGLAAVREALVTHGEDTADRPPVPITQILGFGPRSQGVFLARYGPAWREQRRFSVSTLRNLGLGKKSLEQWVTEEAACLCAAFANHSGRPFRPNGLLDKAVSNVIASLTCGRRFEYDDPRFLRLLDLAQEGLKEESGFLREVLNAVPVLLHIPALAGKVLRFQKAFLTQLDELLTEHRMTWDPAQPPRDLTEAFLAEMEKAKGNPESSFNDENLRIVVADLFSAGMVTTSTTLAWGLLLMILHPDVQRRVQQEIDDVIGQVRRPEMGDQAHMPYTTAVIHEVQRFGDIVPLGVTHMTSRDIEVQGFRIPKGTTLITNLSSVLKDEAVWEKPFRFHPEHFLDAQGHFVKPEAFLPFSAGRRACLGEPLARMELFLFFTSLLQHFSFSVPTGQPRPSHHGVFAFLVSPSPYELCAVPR
Method: as §1

C. glutamicum = experiment: MIC, resazurin assay, C. glutamicum wild type; type: cell-based, Corynebacterium glutamicum; settings: for C. glutamicum MIC: modified Gompertz function; for MIC50 C. glutamicum / MIC99 C. glutamicum: supplementary MIC data file
[4] = galactose medium, read-out: HepG2 Cytotoxicity IC50, Gal
[5] = glucose medium, read-out: HepG2 Cytotoxicity IC50, Glu
[6] = preincubated 30 min prior to NADPH, read-out: CYP2C19 [pre-inc] IC50
[7] = without pre-incubation, read-out: CYP2C19 IC50
[8] = preincubated 30 min prior to NADPH, read-out: CYP2C9 [pre-inc] IC50
[9] = without pre-incubation, read-out: CYP2C9 IC50
[10] = preincubated 30 min prior to NADPH, read-out: CYP2D6 [pre-inc] IC50
[11] = without pre-incubation, read-out: CYP2D6 IC50

Structure (SMILES)	efflux ratio at 2 h, 10 μM [1]	Papp B→A at 2 h, 10 μM [1] [×10⁻⁶ cm/s]	MIC99 (M. tuberculosis 1192/015) [µM]	IC50 (hERG) [µM]	IC50 at 24 h [2, 4] [µM]	IC50 at 24 h [2, 5] [µM]	microsomal CLint at 1 μM [3] [µL/min/mg]	CYP2C19 inhibition (in words) (CYP2C19)	IC50 (CYP2C19; [6]) [µM]	IC50 (CYP2C19; [7]) [µM]	IC50 (CYP2C9; [8]) [µM]	IC50 (CYP2C9; [9]) [µM]	CYP2D6 inhibition (in words) (CYP2D6)	IC50 (CYP2D6; [10]) [µM]	IC50 (CYP2D6; [11]) [µM]	C. glutamicum MIC (C. glutamicum) [µM]	MIC50 C. glutamicum (C. glutamicum) [µM]	MIC99 C. glutamicum (C. glutamicum) [µM]	also measured
CNCC1CC(c2ccc(OC(F)(F)F)cc2)N1Cc1ccccc1OC(F)(F)F (stereo not drawn) [BGAz-005]	< 1	1.4	23.2 (≈ 10.1 µg/mL)	12.7	23	21	36	negligible inhibition	15.8	> 20	> 20	> 20	significant inhibition	0.01	0.06	12			
FC(F)(F)Oc1ccc(C2CC(CN3CCCC3)N2Cc2ccccc2OC(F)(F)F)cc1 (stereo not drawn) [BGAz-002]	1.2	2.8	37.8 (≈ 17.9 µg/mL)		65	38	166	negligible inhibition	> 20	> 20	> 20	> 20	significant inhibition	0.08	0.19	50	43 (≈ 20.4 µg/mL)	49 (≈ 23.2 µg/mL)	IC50 (hERG; human, CHO cells stably expressing hERG, pH 7.4): > 167 µM; inhibition at 167 µM (hERG; human, pH 7.4, 167 μM, read-out: hERG inhibition at top test concentration): < 50%
Brc1cc(Br)cc(C2CC(CN3CCCC3)N2Cc2ccccc2Br)c1 (stereo not drawn) [BGAz-004]	1.4	0.5	15.4 (≈ 8.36 µg/mL)	25	> 100	> 100	192		2.04	> 15.1	17.8	> 20	significant inhibition	1.05	1.97	20	12 (≈ 6.52 µg/mL)	12 (≈ 6.52 µg/mL)	CYP2C19 inhibition (in words), preincubated (CYP2C19; preincubated for 30 min prior to initiation of catalysis): strong inhibitory activity; CYP2C9 inhibition (in words) (CYP2C9; preincubated for 30 min prior to the addition of NADPH): minimal CYP2C9 inhibition
